Our source for the IC50 values is US20050250819A1 (priority 2004, published 2005).

The test system of the experiment is Type III protein secretion of the chimeric SopE‘-’Bla polypeptide (SPI1 type III protein secretion system). The experiment is described as follows: Primary assay: Type III protein secretion of the chimeric SopE'-'Bla polypeptide by Salmonella enterica. The class given is cell-based. Particulars: read-out: SopE IC50(μM). From the text: Primary assay: Type III protein secretion of the chimeric SopE‘-’Bla polypeptide by Salmonella enterica. This procedure is a cell-based assay that measures the type III-dependent secretion by Salmonella enterica of a plasmid-encoded chimeric polypeptide whose synthesis can be regulated, and which is endowed with an enzymatic activity that can be monitored colorimetrically by hydrolysis of a substrate that is unable to penetrate into the bacterial cytoplasm within the time constraints of the reaction. Thus, the colormetric reaction is not influenced by SopE‘-’Bla polypeptide in the bacterial cytplasm. Instead, it effectively measures the amount of polypeptide that has been secreted from the S. enterica cytoplasm to the extracellular medium via type III system protein secretion.
The SopE‘-’Bla recombinant polypeptide consists of two functionally distinct domains spliced together. The N-terminus domain is encoded by a polynucleotide region specifying the signal for type III secretion of the SopE polypeptide of S. enterica, an effector of the SPI1 type III protein secretion system. The C-terminus domain of SopE‘-’Bla consists of a 263 amino acid peptide sequence that corresponds to the TEM-1 β-lactamase expressed by plasmid pBR322 but without its N-terminal signal sequence. The TEM-1 β-lactamase part of the SopE‘-’Bla chimeric polypeptide is used as a reporter enzyme. It is capable of hydrolyzing nitrocefin resulting in a product whose accumulation can be monitored by colorimetric detection. The secretion of the SopE‘-’Bla chimeric polypeptide from the cytoplasm to the extracellular medium is dependent on type III protein secretion.
For this procedure, cells grown under conditions known to favor a functional SPI1 secretion system are induced for expression of the SopE‘-’Bla protein and grown either in the presence or in the absence of putative inhibitors for determined time. Nitrocefin is then added to the various cultures and its hydrolysis are used for quantitation. An inhibitor of Type III protein secretion is generally a compound that reduces the signal of the enzymatic reaction by decreasing the amount of SopE‘-’Bla secreted into the extracellular medium.
In the case of `O=C(N[C@@H](CSCc1ccccc1)C(=O)O)/C(=C\c1ccc2ccccc2c1)NC(=O)c1ccc(Br)cc1` [Compound 45, (R)-3-Benzylsulfanyl-2-[2-(4-bromobenzoylamino)-3-naphthalen-2-yl-acryloylamino]propionic acid], the IC50 (as a rule, the midpoint of a concentration-inhibition curve) came to 81.6 µM.

For the compound `O=C(N[C@@H](CSCc1ccccc1)C(=O)O)C(=Cc1ccc2ccccc2c1)NC(=O)c1ccc(I)cc1` [Compound 46, (R)-3-Benzylsulfanyl-2-[2-(4-iodobenzoylamino)-3-naphthalen-2-yl-acryloylamino]propionic acid], the IC50 is 28.6 µM.

As for `O=C(NN(Cc1cccc(C(F)(F)F)c1)C(=O)NC(Cc1ccc(Cl)cc1)C(=O)O)c1ccc(-c2ccccc2)cc1` (stereo not shown) [Compound 51, 4-Biphenylcarboxylic acid-N′-[(3-trifluoromethylphenyl)methyl]-N′-[[[2-(4-chlorophenyl)-1-carboxyethyl]amino]carbonyl]hydrazide], the IC50 came out at 8 µM.

Regarding `O=C(NN(Cc1ccc(Cl)c(C(F)(F)F)c1)C(=O)NC(Cc1ccc(Cl)cc1)C(=O)O)c1ccc(-c2ccccc2)cc1` (stereo not shown) [Compound 52, 4-Biphenylcarboxylic acid-N′-[(4-chloro-3-trifluoromethylphenyl)methyl]-N′-[[[2-(4-chlorophenyl)-1-carboxyethyl]amino]carbonyl]hydrazide], the IC50 came to 3.1 µM.

As to `O=C(N[C@@H](CSCc1ccccc1)C(=O)O)/C(=C\c1ccc(OCc2ccncc2)cc1)NC(=O)c1ccc(C(F)(F)F)cc1` [Compound 59, (R)-3-Benzylsulfanyl-2-[3-[4-(pyridin-4-yl-methoxy)phenyl]-2-(4-trifluoromethyl-benzoylamino)acryloylamino]propionic acid], the IC50 is 73.4 µM.

Turning to `O=C(NC(Cc1ccc(Br)cc1)C(=O)O)/C(=C\c1cccc(C(F)(F)F)c1)NC(=O)c1ccc(-c2ccccc2)cc1` (stereo not shown) [Compound 60, 2-[2-[(Biphenyl-4-carbonyl)amino]-3-(3-trifluoromethylphenyl)acryloylamino]-3-(4-bromophenyl)propionic acid], the IC50 is 9.2 µM.

`O=C(NC(=Cc1cccc(C(F)(F)F)c1)C(=O)N1C(c2ccc(F)cc2)SC[C@H]1C(=O)O)c1ccc(-c2ccccc2)cc1` (stereo partly drawn) [Compound 61, (4R)-3-[2-[(Biphenyl-4-carbonyl)amino]-3-(3-trifluoromethylphenyl)acryloyl]-2-(4-fluorophenyl)thiazolidine-4-carboxylic acid]: the IC50 was 3.7 µM.

For `O=C(N[C@H](CSCc1ccccc1)C(=O)O)/C(=C\c1ccc(C(F)(F)F)cc1)NC(=O)c1cc2ccccc2s1` [Compound 64, (S)-2-[2-[(Benzo[b]thiophene-2-carbonyl)amino]-3-(4-trifluoromethylphenyl)-acryloylamino]-3-benzylsulfanylpropionic acid], the IC50 came out at 49.4 µM.

As to `O=C(N[C@H](COCc1ccccc1)C(=O)O)/C(=C\c1ccc(C(F)(F)F)cc1)NC(=O)c1cc2ccccc2s1` [Compound 65, (R)-2-[2-[(Benzo[b]thiophene-2-carbonyl)amino]-3-(4-trifluoromethylphenyl)-acryloylamino]-3-benzyloxypropionic acid], the IC50 came to 88 µM.

For the compound `O=C(N[C@@H](Cc1ccc(Cl)cc1)C(=O)O)/C(=C\c1ccc(Cl)c(Cl)c1)NC(=O)c1cc2ccccc2s1` [Compound 66, (S)-2-[2-[(Benzo[b]thiophene-2-carbonyl)amino]-3-(3,4-dichlorophenyl)-acryloylamino]-3-(4-chlorophenyl)propionic acid], the IC50 worked out at 19 µM.

Consider `O=C(N[C@H](CSCc1ccccc1)C(=O)O)/C(=C\c1ccc(Cl)c(Cl)c1)NC(=O)c1cc2ccccc2s1` [Compound 67, (S)-2-[2-[(Benzo[b]thiophene-2-carbonyl)amino]-3-(3,4-dichlorophenyl)-acryloylamino]-3-benzylsulfanylpropionic acid], for which the IC50 was 27 µM.

As for `O=C(N[C@H](COCc1ccccc1)C(=O)O)/C(=C\c1ccc(Cl)c(Cl)c1)NC(=O)c1cc2ccccc2s1` [Compound 68, (R)-2-[2-[(Benzo[b]thiophene-2-carbonyl)amino]-3-(3,4-dichlorophenyl)-acryloylamino]-3-benzyloxypropionic acid], the IC50 worked out at 52 µM.

Consider `O=C(N[C@@H](Cc1ccc(Cl)cc1)C(=O)O)/C(=C\c1cccc(C(F)(F)F)c1)NC(=O)c1cc2ccccc2o1` [Compound 69, (S)-2-[2-[(Benzofuran-2-carbonyl)amino]-3-(3-trifluoromethylphenyl)acryloylamino]-3-(4-chlorophenyl)propionic acid], for which the IC50 is 28.5 µM.

With `Cn1cc(C(=O)N/C(=C/c2cccc(C(F)(F)F)c2)C(=O)N[C@H](COCc2ccccc2)C(=O)O)c2ccccc21` [Compound 70, (R)-3-Benzyloxy-2-[2-[(1-methyl-1H-indole-3-carbonyl)amino]-3-(3-trifluoromethylphenyl)acryloylamino]propionic acid], the IC50 was 86.3 µM.

`O=C(NC(Cc1ccc(F)cc1)C(=O)O)/C(=C\c1cccc(C(F)(F)F)c1)NC(=O)c1ccc(-c2ccccc2)cc1` (stereo not shown) [Compound 71, 2-[2-[(Biphenyl-4-carbonyl)amino]-3-(3-trifluoromethylphenyl)acryloylamino]-3-(4-fluorophenyl)propionic acid]: the IC50 is 34.2 µM.

With `O=C(NC(Cc1ccc(C(F)(F)F)cc1)C(=O)O)/C(=C\c1cccc(C(F)(F)F)c1)NC(=O)c1ccc(-c2ccccc2)cc1` (stereo not shown) [Compound 72, 2-[2-[(Biphenyl-4-carbonyl)amino)-3-(3-trifluoromethylphenyl)acryloylamino]-3-(4-trifluoromethylphenyl)propionic acid], the 50% inhibitory concentration (IC50) was 12.8 µM.

Take `O=C(N[C@H](COCc1ccccc1)C(=O)O)/C(=C\c1ccc(Cl)c(Cl)c1)NC(=O)C1CCN(c2nccc(C(F)(F)F)n2)CC1` [Compound 73, (R)-3-Benzyloxy-2-(3-(3,4-dichlorophenyl)-2-{[1-(4-trifluoromethylpyrimidin-2-yl)-piperidine-4-carbonyl]amino}acryloylamino)propionic acid]: the IC50 is 12.8 µM.

Consider `O=C(N[C@@H](Cc1ccc(Cl)cc1)C(=O)O)/C(=C\c1cccc(C(F)(F)F)c1)NC(=O)C1CCN(c2nccc(C(F)(F)F)n2)CC1` [Compound 79, (S)-3-(4-Chlorophenyl)-2-(3-(3-trifluoromethylphenyl)-2-{[1-(4-trifluoromethyl-pyrimidin-2-yl)piperidine-4-carbonyl]amino}acryloylamino)propionic acid], for which the IC50 worked out at 25.9 µM.

Consider `O=C(N[C@H](COCc1ccccc1)C(=O)O)/C(=C\c1ccc(Br)cc1)NC(=O)C1CCN(c2nccc(C(F)(F)F)n2)CC1` [Compound 80, (R)-3-Benzyloxy-2-(3-(4-bromophenyl)-2-{[1-(4-trifluoromethylpyrimidin-2-yl)-piperidine-4-carbonyl]amino}acryloylamino)propionic acid], for which the IC50 was found to be 38.5 µM.

For `O=C(N[C@@H](CSCc1ccccc1)C(=O)O)/C(=C\c1ccc(Br)cc1)NC(=O)C1CCN(c2nccc(C(F)(F)F)n2)CC1` [Compound 81, (R)-3-Benzylsulfanyl-2-(3-(4-bromophenyl)-2-{[1-(4-trifluoromethylpyrimidin-2-yl)piperidine-4-carbonyl]amino}acryloylamino)propionic acid], the IC50 is 58.1 µM.

On to `O=C(N[C@@H](Cc1ccc(Cl)cc1)C(=O)O)/C(=C\c1ccc(Br)cc1)NC(=O)C1CCN(c2nccc(C(F)(F)F)n2)CC1` [Compound 82, (S)-2-(3-(4-Bromophenyl)-2-{[1-(4-trifluoromethylpyrimidin-2-yl)piperidine-4-carbonyl]amino}acryloylamino)-3-(4-chlorophenyl)propionic acid], for which the IC50 came to 27.8 µM.

`O=C(N[C@@H](Cc1ccc(Cl)cc1)C(=O)O)/C(=C\c1ccc(OC(F)(F)F)cc1)NC(=O)C1CCN(c2nccc(C(F)(F)F)n2)CC1` [Compound 85, (S)-3-(4-Chlorophenyl)-2-(3-(4-trifluoromethoxyphenyl)-2-{[1-(4-trifluoromethyl-pyrimidin-2-yl)piperidine-4-carbonyl]amino}acryloylamino)propionic acid]: the IC50 came to 35.2 µM.

In the case of `O=C(O)C(Cc1ccc(Cl)cc1)NC(=O)N(CCc1ccc(-c2ccccc2)cc1)Cc1cccc(C(F)(F)F)c1` (stereo not shown) [Compound 87, 2-[3-(2-Biphenyl-4-yl-ethyl)-3-(3-trifluoromethylbenzyl)ureido]-3-(4-chlorophenyl)propionic acid], the IC50 was 1.5 µM.

For the compound `O=C(O)[C@H](COCc1ccccc1)NC(=O)N(CCc1ccc(-c2ccccc2)cc1)Cc1cccc(C(F)(F)F)c1` [Compound 88, (S)-3-Benzyloxy-2-[3-(2-biphenyl-4-yl-ethyl)-3-(3-trifluoromethylbenzyl)ureido]propionic acid], the IC50 was 4 µM.

In the case of `O=C(O)[C@H](COCc1ccccc1)NC(=O)N(CCc1ccc(-c2ccccc2)cc1)Cc1ccc(Cl)c(Cl)c1` [Compound 89, (S)-3-Benzyloxy-2-[3-(2-biphenyl-4-yl-ethyl)-3-(3,4-dichlorobenzyl)ureido]propionic acid], the IC50 turned out to be 2.1 µM.
